US11840532B2, “Modulators of THR-β and methods of use thereof” (ALIGOS THERAPEUTICS, INC., priority 2020, dated 2023)

How the values were obtained:
[1] = target: T1, human thyroid receptor alpha ligand-binding domain (THRα) (Homo sapiens, UniProt P10827); assay: THR Biochemical Assay (Assay 1): TR-FRET thyroid receptor coactivator assay, alpha LBD; conditions: TR-FRET coactivator recruitment; for Emax: read-out: Activity category Assay 1 THRα (Emax); for EC50: agonist EC50, read-out: Activity category Assay 1 THRα (EC50)
T1 construct: purchased Invitrogen
T1 sequence (P10827 163-410 isoform P10827-2 limits assumed, other chains not shown): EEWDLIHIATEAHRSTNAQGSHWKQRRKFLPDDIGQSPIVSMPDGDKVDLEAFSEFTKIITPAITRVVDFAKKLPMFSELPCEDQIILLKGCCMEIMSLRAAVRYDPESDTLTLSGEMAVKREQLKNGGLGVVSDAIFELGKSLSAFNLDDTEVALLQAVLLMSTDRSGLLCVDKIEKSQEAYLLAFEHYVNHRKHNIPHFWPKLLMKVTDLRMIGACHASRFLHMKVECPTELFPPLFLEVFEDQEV
Excerpt: (§1) THR Biochemical Assay (sAsay 1)
(§2) The TR-FRET thyroid receptor beta coactivator assay was used with slight, optimized modifications of the manufacturer's protocol (Invitrogen). The assay uses a terbium-labeled anti-GST antibody, a glutathione-S-transferase (GST) tagged human thyroid receptor, beta or alpha, ligand-binding domain (LBD), and a fluorescein labeled SRC2-2 coactivator peptide. The antibody interacts with the LBD, where the agonist also binds, resulting in increased affinity for the SRC2-2 coactivator peptide causing energy transfer of the acceptor fluorophore and a FRET emission shift from 495 to 520 nm. The energy transfer is detected as an increase in the fluorescence emission of the fluorescein acceptor, and a decrease in the fluorescence emission of the terbium donor. The assay is performed in a 384-well black plate in a final volume of 20 μL. Serial dilution of various test agonists was performed in DMSO (1% final DMSO concentration) and added to the test plate. Thyroid receptor beta LBD is added to the plate at a final concentration of 1 nM, followed by the mixture of the fluorescein labeled SRC2-2 coactivator peptide, and the terbium-labeled anti-GST antibody at final concentrations of 200 nM and 2 nM respectively. The assay is incubated for 1 h at rt protected from light. The TR-FRET is then measured on a Victor multilabel reader (Perkin Elmer) using an excitation wavelength of 340 nm with emission filters of 495 nm and 520 nm. The assay is quantified by expressing a ratio (520:495) of the intensities, and the resulting activation curves; EC50 values were generated using a sigmoidal dose response (variable slope) equation in GraphPad™ Prism 8.0.

[2] = target: T2, human thyroid receptor beta ligand-binding domain (THRβ) (Homo sapiens, UniProt P10828); assay: THR Biochemical Assay (Assay 1): TR-FRET thyroid receptor beta coactivator assay; conditions: TR-FRET coactivator recruitment, THRβ LBD; for Emax: read-out: Activity category Assay 1 THRβ (Emax); for EC50: agonist EC50, read-out: Activity category Assay 1 THRβ (EC50)
T2 construct: purchased Invitrogen
T2 sequence (P10828 217-461 limits assumed): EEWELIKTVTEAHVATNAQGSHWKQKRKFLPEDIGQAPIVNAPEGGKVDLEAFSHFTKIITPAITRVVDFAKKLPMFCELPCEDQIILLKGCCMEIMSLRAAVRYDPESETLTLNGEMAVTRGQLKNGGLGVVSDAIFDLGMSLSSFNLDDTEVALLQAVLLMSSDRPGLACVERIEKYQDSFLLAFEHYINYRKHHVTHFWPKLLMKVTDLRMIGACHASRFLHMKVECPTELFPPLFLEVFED
Excerpt: as §1, §2

Huh-7 cells = assay: Huh-7 Differential Gene Expression (Assay 2): CPT1A RT-qPCR; assay type: cell-based; conditions: Homo sapiens, CPT1A gene expression in Huh-7 cells, 24 hr treatment, TH-depleted DMEM; for EC50: read-out: Activity category Assay 2 EC50; for Emax: read-out: Activity category Assay 2 Emax
Description: Huh-7 Differential Gene Expression (Assay 2)
Fetal bovine serum (FBS) was incubated with washed resin (50 mg resin/mL FBS; resin weight is dry weight of resin prior to washing) for 5 hr at room temperature on a rotor. The FBS was separated from the resin via centrifugation and incubated with new, washed resin for 18h at room temperature on a rotor.
Cell Culture and Drug Treatment
Huh-7 cells were cultured in DMEM (10-013-CM, Corning) supplemented with 10% FBS and 1% Pen-Strep at 37° C. under 5% CO2. When 70-80% confluence was reached, the cells were removed by trypsinization. The medium was aspirated from the cell culture dish, the cell monolayer was washed with 1× PBS, and 0.05% trypsin, 0.53 mM EDTA (25-052-CV, Corning) solution was added to the dish. After 3 min incubation, the cells were detached completely by repeatedly pipetting solution onto the monolayer. Equal volume of DMEM supplemented with 10% rFBS and 1% Pen-Strep (TH-depleted DMEM) was added to the dish to inactivate the trypsin. The cell suspension was centrifuged at 350×g at room temperature for 3 min. The supernatant was aspirated out and the cell pellet was resuspended in TH-depleted DMEM. […] After 24 hr incubation, the media was replaced with treatment media. All compounds were serially diluted in DMSO and final concentrations were reached by dilution in TH-depleted DMEM (0.1% DMSO). The cells were incubated in treatment media for 24 hr. Treatments were performed in biological duplicates.
After 24 h in treatment media, the cells were lysed directly on the culture plates and cDNA was produced using the TaqMan™ Fast Advanced Cells-to-CT™ Kit (A35374, Invitrogen) and following the manufacturer's protocol. RT-qPCR for CPT1A (Hs00912671_m1) and two housekeeping genes, ACTB (Hs01060665_g1) and TFG (Hs02832013_g1), was performed using TaqMan™ Fast Advanced Master Mix. RT-qPCR reactions were run on the qTOWER^3 84 G (Analytik Jena) in technical duplicates.
ΔRn values were obtained from the qPCRsoft384 1.0 software and CPT1A gene expression was quantified via the 2ΔΔCt method. Dose-response curves were generated using GraphPad Prism 8 using four parameter logistic equation without top constraint to derive EC50 and Emax.

Row | Structure (SMILES) | Emax [1] [%] | EC50 [1] [nM] | Emax [2] [%] | EC50 [2] [nM] | EC50 (Huh-7 cells) [nM] | Emax (Huh-7 cells) [%]
1 | Cc1cc(OCc2nn[nH]n2)c(C)c(C)c1Cc1ccc2[nH]cc(C(C)C)c2n1 [Compound 10, 5-(4-((2H-tetrazol-5-yl)methoxy)-2,3,6-trimethylbenzyl)-3-isopropyl-1H-pyrrolo[3,2-b]pyridine] | < 50 | > 25000 | < 50 | < 50 |  | 
2 | Cc1cc(NC(=O)c2noc(=O)[nH]2)cc(C)c1Cc1ccc2[nH]cc(C(C)C)c2n1 [Compound 3, N-(4-((3-isopropyl-1H-pyrrolo[3,2-b]pyridin-5-yl)methyl)-3,5-dimethylphenyl)-5-oxo-4,5-dihydro-1,2,4-oxadiazole-3-carboxamide] | < 50 | < 50 | < 50 | < 50 |  | 
3 | Cc1cc(OC(C)C(=O)O)c(C)c(C)c1Cc1ccc2[nH]cc(C(C)C)c2n1 (stereo not drawn) [Compound 7, 2-(4-((3-isopropyl-1H-pyrrolo[3,2-b]pyridin-5-yl)methyl)-2,3,5-trimethylphenoxy)propanoic acid] | < 50 | > 25000 | < 50 | 1000 to 25000 |  | 
4 | Cc1nc(OCC(=O)O)c(C)c(C)c1Cc1ccc2[nH]cc(C(C)C)c2n1 [Compound 6, [[5-([3-isopropyl-1H-pyrrolo[3,2-b]pyridin-5-yl]methyl)-3,4,6-trimethylpyridin-2-yl]oxy]acetic acid] | < 50 | 1000 to 25000 | < 50 | 50 to 250 | 100 to 1000 | < 50
5 | Cc1cc(OC(C)(C)C(=O)O)c(C)c(C)c1Cc1ccc2[nH]cc(C(C)C)c2n1 [Compound 8, 2-(4-((3-isopropyl-1H-pyrrolo[3,2-b]pyridin-5-yl)methyl)-2,3,5-trimethylphenoxy)-2-methylpropanoic acid] | < 50 | > 25000 | < 50 | < 50 |  | 
6 | CCOC(=O)C(=O)Nc1cc(C)c(Cc2ccc3[nH]cc(C(C)C)c3n2)c(C)c1 [Compound 5, ethyl 2-((4-((3-isopropyl-1H-pyrrolo[3,2-b]pyridin-5-yl)methyl)-3,5-dimethylphenyl)amino)-2-oxoacetate] | < 50 | < 50 | < 50 | < 50 |  | 
7 | Cc1cc(OC(F)C(=O)O)c(C)c(C)c1Cc1ccc2[nH]cc(C(C)C)c2n1 (stereo not drawn) [Compound 9, 2-fluoro-2-(4-((3-isopropyl-1H-pyrrolo[3,2-b]pyridin-5-yl)methyl)-2,3,5-trimethylphenoxy)acetic acid] | < 50 | > 25000 | < 50 | < 50 |  | 
8 | Cc1cc(OCc2noc(=O)[nH]2)c(C)c(C)c1Cc1ccc2[nH]cc(C(C)C)c2n1 [Compound 11, 3-((4-((3-isopropyl-1H-pyrrolo[3,2-b]pyridin-5-yl)methyl)-2,3,5-trimethylphenoxy)methyl)-1,2,4-oxadiazol-5(4H)-one] | < 50 | > 25000 | < 50 | < 50 | 100 to 1000 | < 50
9 | Cc1cc(OCC(=O)O)c(C)c(C)c1Cc1ccc2[nH]cc(C(C)C)c2n1 [Compound 1, 2-(4-((3-isopropyl-1H-pyrrolo[3,2-b]pyridin-5-yl)methyl)-2,3,5-trimethylphenoxy)acetic acid] | < 50 | 250 to 1000 | < 50 | < 50 | 100 to 1000 | > 75
10 | Cc1cc(NC(=O)C(=O)O)cc(C)c1Cc1ccc2[nH]cc(C(C)C)c2n1 [Compound 4, 2-((4-((3-isopropyl-1H-pyrrolo[3,2-b]pyridin-5-yl)methyl)-3,5-dimethylphenyl)amino)-2-oxoacetic acid] | < 50 | < 50 | 50 to 75 | < 50 |  | 
11 | N[C@@H](Cc1cc(I)c(Oc2ccc(O)c(I)c2)c(I)c1)C(=O)O [Reference(T3), triiodothyronine, reference compound] |  |  |  |  | < 100 | > 75
12 | Cc1cc(OCC(=O)O)cc(C)c1Cc1ccc2[nH]cc(C(C)C)c2n1 [Compound 2, 2-(4-((3-isopropyl-1H-pyrrolo[3,2-b]pyridin-5-yl)methyl)-3,5-dimethylphenoxy)acetic acid] | < 50 | 50 to 250 | < 50 | < 50 | < 100 | > 75
